The values below come from patent US4410716A, “Dibenzo[a,d]cycloheptene derivatives and process for production thereof” (Toa Eiyo Kagaku Kogyo Co. Ltd., priority 1979, dated 1983).

The subject of data set [1] is edema (carrageenin, hind paw). The data set can be described thus: Anti-inflammatory activity: carrageenin hind paw edema in rats, oral administration. The note with it: for inhibition in vivo at 5 mg/kg / inhibition in vivo at 20 mg/kg / inhibition in vivo at 50 mg/kg / ED40 / inhibition in vivo at 25 mg/kg / inhibition in vivo at 100 mg/kg / inhibition in vivo at 1 mg/kg / inhibition in vivo at 10 mg/kg: Rattus norvegicus; for inhibition in vivo at 5 mg/kg: 5 mg/kg oral; for inhibition in vivo at 5 mg/kg / inhibition in vivo at 20 mg/kg / inhibition in vivo at 50 mg/kg / inhibition in vivo at 25 mg/kg / inhibition in vivo at 100 mg/kg / inhibition in vivo at 1 mg/kg / inhibition in vivo at 10 mg/kg: read-out: Percent edema inhibition; for inhibition in vivo at 20 mg/kg: 20 mg/kg oral; for inhibition in vivo at 50 mg/kg: 50 mg/kg oral; for ED40: dose causing 40% inhibition, dose-response line, read-out: ED40 value; for ED40 / anti-inflammatory activity (in words): oral; for anti-inflammatory activity (in words): carrageenin edema, rat; for inhibition in vivo at 25 mg/kg: 25 mg/kg oral; for inhibition in vivo at 100 mg/kg: 100 mg/kg oral; for inhibition in vivo at 1 mg/kg: 1 mg/kg oral; for inhibition in vivo at 10 mg/kg: 10 mg/kg oral. The format is in vivo, male Donryu rats. Here is the method: (§1) The anti-inflammatory activity, analgesic activity and ulcerogenic activity of the novel dibenzo[a,d]cycloheptene derivatives of this invention were tested by the following methods.
Each of test compounds was orally administered to groups of male Donryu rats weighing 130 to 150 g (8 to 10 rats per group), and one hour later, 0.1 ml of a 1% carrageenin solution was injected subcutaneously into the hind paw of each rat. After injection of carrageenin, the volume of the paw was measured at predetermined periods, and the percent inhibition against a control group was calculated.

The nature of another data set: in vivo. The note with it: rat, in vivo, po. Here is the method: as §1
(§2) Sixteen hours later, the rats were sacrificed under ether anesthesia.
(§3) *Calculated by the Adami's method.
(§4) **Calculated by the LitchfieldWilcoxon's method. The parenthesized values
(§5) show 95% confidence limits.

In data set [2] the test system is writhing syndromes (acetic acid). Description: Analgesic activity: acetic acid writhing in mice. The format is in vivo, male ICR mice. Here is the method: as §1
Using male ICR mice weighing 25 to 30 g (10 mice per group), there was measured the number of writhing syndromes induced when a 1% solution of acetic acid was intraperitoneally injected at a dose of 10 ml/kg. The percent inhibition against a control group was calculated.
(In general: An intraperitoneal irritant provokes the stretching counted in writhing tests.)

In another data set the test system is gastric wall. Description: in vivo. The note with it: rat, in vivo, po. The method, then:
as §1, §2, §3, §4, §5

Entries after “also recorded” stand apart in the source; their conditions may differ. Where two headings read alike, the source gives them in different places.

Take `COC1=Cc2ccccc2Cc2ccc(C(C)C(=O)O)cc21` (stereo not drawn) [Ih, 2-(11-methoxy-5H-dibenzo[a,d]cyclohepten-2-yl)propionic acid]: in data set [1] (1 hour after carrageenin), the inhibition in vivo at 5 mg/kg worked out at 18.4%, the inhibition in vivo at 20 mg/kg stood at 28.1% and the inhibition in vivo at 50 mg/kg turned out to be 35.6%. In data set [1] (2 hours after carrageenin), the inhibition in vivo at 5 mg/kg was determined as 24.7%, the inhibition in vivo at 20 mg/kg stood at 22.9% and the inhibition in vivo at 50 mg/kg was found to be 32.9%. Further, in data set [1] (3 hours after carrageenin), the inhibition in vivo at 5 mg/kg was determined as 12%, the inhibition in vivo at 20 mg/kg amounted to 26.8%, the inhibition in vivo at 50 mg/kg was 35.4% and the ED40 stood at 77 mg/kg. Also, in data set [1] (4 hours after carrageenin), the inhibition in vivo at 5 mg/kg is 12.6%, the inhibition in vivo at 20 mg/kg turned out to be 26.8% and the inhibition in vivo at 50 mg/kg was 35.7%. Also, the “anti-inflammatory activity (in words)” value in data set [1] was “excellent anti-inflammatory activity; also recorded: evidently show anti-inflammatory activity although their activity is weaker than that of indomethacin”.

Turning to `O=C(O)Cc1ccc2c(c1)Cc1ccccc1C(=O)C2` [If, 10,11-dihydro-10-oxo-5H-dibenzo[a,d]cycloheptene-3-acetic acid], the inhibition in vivo at 25 mg/kg in data set [1] (1 hour after carrageenin) was -22.6%; in data set [1] (2 hours after carrageenin), -16.8%; in data set [1] (3 hours after carrageenin), -12.3%; in data set [1] (4 hours after carrageenin), -8.7%. In addition, the inhibition in vivo at 100 mg/kg was -23.5% in data set [1] (1 hour after carrageenin), -21.4% in data set [1] (2 hours after carrageenin), -9.1% in data set [1] (3 hours after carrageenin) and -5.5% in data set [1] (4 hours after carrageenin).

On to `O=C(O)Cc1ccc2c(c1)CC(=O)c1ccccc1C2` [Id, 10,11-dihydro-10-oxo-5H-dibenzo[a,d]cycloheptene-2-acetic acid], for which the inhibition in vivo at 25 mg/kg came out at 36% in data set [1] (1 hour after carrageenin), 36% in data set [1] (2 hours after carrageenin), 21.4% in data set [1] (3 hours after carrageenin) and 18.4% in data set [1] (4 hours after carrageenin). For the same compound, the inhibition in vivo at 100 mg/kg in data set [1] (1 hour after carrageenin) came to 44.6%; in data set [1] (2 hours after carrageenin) it was 39%; in data set [1] (3 hours after carrageenin), 28.1%; in data set [1] (4 hours after carrageenin), 21.4%.

For orientation: ED50 means the midpoint of the dose-response relation. For `CC(C(=O)O)c1ccc2c(c1)C(=O)Cc1ccccc1C2` (stereo not drawn) [compound Ii, 2-(10,11-dihydro-11-oxo-5H-dibenzo[a,d]cyclohepten-2-yl)propionic acid], in “in vivo”, the TD50 at 16 h amounted to 15 mg/kg and the selectivity ratio stood at 7.9. Moreover, in data set [2] (10.0 mg/kg), the “Inhibition (writhing)” value was determined as 14.0% and the “Number of writhing syndromes (Mean ± SE)” value came to 19.7 ± 1.77. In data set [2] (20.0 mg/kg), the “Inhibition (writhing)” value is given as 33.6% and the “Number of writhing syndromes (Mean ± SE)” value stood at 15.2 ± 1.28. For the same compound, in data set [2] (40.0 mg/kg), the “Inhibition (writhing)” value turned out to be 45.4% and the “Number of writhing syndromes (Mean ± SE)” value worked out at 12.5 ± 1.65. In data set [2] (80.0 mg/kg), the “Inhibition (writhing)” value came to 57.6% and the “Number of writhing syndromes (Mean ± SE)” value stood at 9.7 ± 1.93. Further, the ED50 in data set [2] (Mus musculus, po, dose causing 50% inhibition of writhing, dose-response line, read-out: ED50 value) worked out at 52 mg/kg. Besides, in data set [2] (writhing, mouse), the “ED50 value relative to that of indomethacin” value is recorded as “ten times”, the “analgesic activity (in words)” value is reported as “weak analgesic activity” and the “analgesic activity relative to indomethacin” value is “one-tenth of that of indomethacin”. Further, in data set [1] (1 hour after carrageenin), the inhibition in vivo at 1 mg/kg was determined as 34.4%, the inhibition in vivo at 5 mg/kg was 35.8% and the inhibition in vivo at 10 mg/kg came out at 50%. In data set [1] (2 hours after carrageenin), the inhibition in vivo at 1 mg/kg was 30.6%, the inhibition in vivo at 5 mg/kg worked out at 54% and the inhibition in vivo at 10 mg/kg is 55%. In data set [1] (3 hours after carrageenin), the inhibition in vivo at 1 mg/kg was determined as 32.4%, the inhibition in vivo at 5 mg/kg came out at 51.7%, the inhibition in vivo at 10 mg/kg was 54.6% and the ED40 is 1.9 mg/kg. In data set [1] (4 hours after carrageenin), the inhibition in vivo at 1 mg/kg was determined as 32.4%, the inhibition in vivo at 5 mg/kg was 50.9% and the inhibition in vivo at 10 mg/kg was 54.6%. For the same compound, in data set [1], the “anti-inflammatory activity (in words)” value is recorded as “excellent anti-inflammatory activity; also recorded: stronger than that of indomethacin; also recorded: very potent anti-inflammatory activity”.

With `O=C(O)Cc1ccc2c(c1)C(=O)Cc1cc(F)ccc1C2` [Ib, 8-fluoro-10,11-dihydro-11-oxo-5H-dibenzo[a,d]cycloheptene-2-acetic acid], the “ulcerogenic activity (in words)” value in the data set with gastric wall is reported as “much weaker than that of indomethacin”. The inhibition in vivo at 25 mg/kg in data set [1] (1 hour after carrageenin) was 32.4%; in data set [1] (2 hours after carrageenin), 45.3%; in data set [1] (3 hours after carrageenin), 43.4%; in data set [1] (4 hours after carrageenin) it was 41.9%. Moreover, the inhibition in vivo at 100 mg/kg in data set [1] (1 hour after carrageenin) amounted to 44.1%; in data set [1] (2 hours after carrageenin), 57.9%; in data set [1] (3 hours after carrageenin), 52.6%; in data set [1] (4 hours after carrageenin), 53%. In addition, the ED40 in data set [1] (3 hours after carrageenin) amounted to 15 mg/kg. Moreover, the “anti-inflammatory activity (in words)” value in data set [1] is “excellent anti-inflammatory activity; also recorded: evidently show anti-inflammatory activity although their activity is weaker than that of indomethacin”.

On to `O=C(O)Cc1ccc2c(c1)Cc1ccccc1CC2=O` [Ic, 10,11-dihydro-11-oxo-5H-dibenzo[a,d]cycloheptene-3-acetic acid], for which the inhibition in vivo at 25 mg/kg was 32.8% in data set [1] (1 hour after carrageenin), 29.4% in data set [1] (2 hours after carrageenin), 25.5% in data set [1] (3 hours after carrageenin) and 24% in data set [1] (4 hours after carrageenin). Moreover, the inhibition in vivo at 100 mg/kg came out at 51.4% in data set [1] (1 hour after carrageenin), 44.7% in data set [1] (2 hours after carrageenin), 40.7% in data set [1] (3 hours after carrageenin) and 39.3% in data set [1] (4 hours after carrageenin). The ED40 in data set [1] (3 hours after carrageenin) is 94 mg/kg. Further, the “anti-inflammatory activity (in words)” value in data set [1] is reported as “excellent anti-inflammatory activity; also recorded: evidently show anti-inflammatory activity although their activity is weaker than that of indomethacin”.

As to `O=C(O)Cc1ccc2c(c1)C(=O)Cc1ccccc1C2` [Ia, 10,11-dihydro-11-oxo-5H-dibenzo[a,d]cycloheptene-2-acetic acid], the “ulcerogenic activity (in words)” value in the data set on gastric wall is on record as “much weaker than that of indomethacin”. For the same compound, the inhibition in vivo at 25 mg/kg amounted to 28.2% in data set [1] (1 hour after carrageenin), 41.8% in data set [1] (2 hours after carrageenin), 44.5% in data set [1] (3 hours after carrageenin) and 41% in data set [1] (4 hours after carrageenin). Moreover, the inhibition in vivo at 100 mg/kg in data set [1] (1 hour after carrageenin) was 33%; in data set [1] (2 hours after carrageenin), 50%; in data set [1] (3 hours after carrageenin), 53.7%; in data set [1] (4 hours after carrageenin) it was 52.2%. Also, the ED40 in data set [1] (3 hours after carrageenin) came out at 13 mg/kg. The “anti-inflammatory activity (in words)” value in data set [1] is reported as “excellent anti-inflammatory activity; also recorded: evidently show anti-inflammatory activity although their activity is weaker than that of indomethacin”.

For `O=C(O)Cc1ccc2c(c1)CC(=O)c1cc(Cl)ccc1C2` [Ie, 8-chloro-10,11-dihydro-10-oxo-5H-dibenzo[a,d]cycloheptene-2-acetic acid], the inhibition in vivo at 25 mg/kg in data set [1] (1 hour after carrageenin) was determined as 4.5%; in data set [1] (2 hours after carrageenin), 8.6%; in data set [1] (3 hours after carrageenin), 3%; in data set [1] (4 hours after carrageenin), 2.3%. For the same compound, the inhibition in vivo at 100 mg/kg in data set [1] (1 hour after carrageenin) is -0.7%; in data set [1] (2 hours after carrageenin), 1.3%; in data set [1] (3 hours after carrageenin), -4.2%; in data set [1] (4 hours after carrageenin), -1.8%.

With `COC1=Cc2ccccc2Cc2ccc(CC(=O)O)cc21` [Ig, 11-methoxy-5H-dibenzo[a,d]cycloheptene-2-acetic acid], the inhibition in vivo at 100 mg/kg in data set [1] (1 hour after carrageenin) was 25.5%; in data set [1] (2 hours after carrageenin) it was 40.6%; in data set [1] (3 hours after carrageenin), 42.6%; in data set [1] (4 hours after carrageenin) it was 37.1%.
